Laboratory results as given in ChEMBL document CHEMBL1201862, “PubChem BioAssay data set” (2004).
Values joined by “and” are separate entries in the source; they are usually repeats but may differ in a detail not shown here. Identical values can stand only once.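 1) Cells in 96-well plates. 2) Compound, 48 h, 5 concentrations. 3) Linear interpolation between surrounding doses. 4) Unreached endpoint = highest concentration. Abbreviation: GI50, concentration required for 50% inhibition of growth.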 Active and inactive are the calls of the source. No stated cut-off is given here; in the data, active = GI50 up to about 1.1 µM and inactive = higher.

Legend:
Test in all cases: NCI tumour cell line growth inhibition, 48 h
SNB-19 = system: SNB-19
UACC-62 = system: UACC-62
NCI-H226 = system: NCI-H226
RXF 393 = system: RXF 393
SK-MEL-5 = system: SK-MEL-5
SN12C = system: SN12C
NCI/ADR-RES = system: NCI/ADR-RES
HCC 2998 = system: HCC 2998
SF-539 = system: SF-539
MDA-MB-231 = system: MDA-MB-231
HT-29 = system: HT-29
Malme-3M = system: Malme-3M
LOX IMVI = system: LOX IMVI
SK-MEL-28 = system: SK-MEL-28
MDA-N = system: MDA-N
SR = system: SR
U-251 = system: U-251
OVCAR-3 = system: OVCAR-3
HCT-116 = system: HCT-116
SK-OV-3 = system: SK-OV-3
ACHN = system: ACHN
T47D = system: T47D
CCRF-CEM = system: CCRF-CEM
OVCAR-5 = system: OVCAR-5
M14 = system: M14
A498 = system: A498
HL-60 = system: HL-60
BT-549 = system: BT-549
SF-268 = system: SF-268
DU-145 = system: DU-145
HOP-92 = system: HOP-92
COLO 205 = system: COLO 205
NCI-H23 = system: NCI-H23
NCI-H460 = system: NCI-H460
MCF7 = system: MCF7
EKVX = system: EKVX
SK-MEL-2 = system: SK-MEL-2
HOP-62 = system: HOP-62
A549 = system: A549
UACC-257 = system: UACC-257
UO-31 = system: UO-31
MOLT-4 = system: MOLT-4
OVCAR-8 = system: OVCAR-8
IGROV-1 = system: IGROV-1

SMILES | GI50 (UACC-62) | GI50 (SK-MEL-5) | GI50 (SN12C) | GI50 (Malme-3M) | GI50 (SK-MEL-28) | GI50 (MDA-N) | GI50 (SR) | GI50 (U-251) | GI50 (OVCAR-3) | GI50 (HCT-116) | GI50 (SK-OV-3) | GI50 (ACHN) | GI50 (CCRF-CEM) | GI50 (OVCAR-5) | GI50 (M14) | other results
COC(=O)CCC(C)[C@H]1CCC2C3C(C[C@H](OC(C)=O)[C@@]21C)[C@@]1(C)CCC2(C[C@H]1C[C@H]3OC(C)=O)OOC1(CCC(C)CC1)OO2 (some centres undefined) | < 0.01 µM (active) | 15.7 µM (inactive) and 9.79 µM (inactive) | 34 µM (inactive) and 33.4 µM (inactive) | 9.51 µM (inactive) and 17.9 µM (inactive) | > 100 µM (inactive) | 27.4 µM (inactive) and 15.7 µM (inactive) | 4.55 µM (inactive) and 2.46 µM (inactive) | 9.16 µM (inactive) and 5.16 µM (inactive) | 7.1 µM (inactive) and 6.27 µM (inactive) | 5.41 µM (inactive) and 2.77 µM (inactive) | > 100 µM (inactive) | 10.1 µM (inactive) and 6.9 µM (inactive) | 6.38 µM (inactive) and 4.59 µM (inactive) | > 100 µM (inactive) | 32.4 µM (inactive) and 18.2 µM (inactive) | GI50 (SNB-19): 75 µM (inactive); GI50 (NCI-H226): 56.6 µM (inactive) and 31.8 µM (inactive); GI50 (RXF 393): 72.3 µM (inactive); GI50 (NCI/ADR-RES): > 100 µM (inactive) and 67.9 µM (inactive); GI50 (HCC 2998): 51.3 µM (inactive); GI50 (SF-539): > 100 µM (inactive) and 58.6 µM (inactive); GI50 (MDA-MB-231): 14 µM (inactive) and 20.2 µM (inactive); GI50 (HT-29): 50.5 µM (inactive) and 55.7 µM (inactive); GI50 (LOX IMVI): 7.8 µM (inactive) and 5.15 µM (inactive); GI50 (T47D): 10.5 µM (inactive); GI50 (A498): > 100 µM (inactive)
CC1(C)[C@H](O)CC[C@]2(C)C3=CC[C@@]4(C)[C@@H]5C[C@](C)(CO)CC[C@]5(C)CC[C@]4(C)C3=CC[C@@H]12 | > 100 µM (inactive) | > 100 µM (inactive) | 2.1 µM (inactive) | > 100 µM (inactive) | > 100 µM (inactive) | > 100 µM (inactive) | 1.75 µM (inactive) | 1.84 µM (inactive) | 1.79 µM (inactive) | 2.01 µM (inactive) | > 100 µM (inactive) | 2.13 µM (inactive) | 1.63 µM (inactive) | > 100 µM (inactive) | > 100 µM (inactive) | GI50 (HL-60): > 100 µM (inactive); GI50 (BT-549): > 100 µM (inactive); GI50 (SF-268): > 100 µM (inactive); GI50 (DU-145): > 100 µM (inactive); GI50 (HOP-92): > 100 µM (inactive); GI50 (COLO 205): 3.23 µM (inactive); GI50 (NCI-H23): > 100 µM (inactive); GI50 (NCI-H460): 1.91 µM (inactive); GI50 (MCF7): > 100 µM (inactive); GI50 (EKVX): > 100 µM (inactive); GI50 (SK-MEL-2): > 100 µM (inactive); GI50 (HOP-62): > 100 µM (inactive); GI50 (A549): 1.75 µM (inactive); GI50 (UACC-257): > 100 µM (inactive); GI50 (UO-31): 1.98 µM (inactive); GI50 (MOLT-4): > 100 µM (inactive); GI50 (OVCAR-8): 2.07 µM (inactive); GI50 (IGROV-1): > 100 µM (inactive)
